Data as given in paper PMC3849129 (International journal of antimicrobial agents, 2013).
Positions of bridges follow the written chain, without caps; N, C: chain ends. Non-standard residues stand in square brackets, D forms with d. Residues, ends and D or L forms follow the SMILES beside them. *: point of attachment. Heptanoyl(6-Me) = CC(C)CCCCC(=O)*; X1 = CC[C@H](C)CCCCC(=O)*; Octanoyl = CCCCCCCC(=O)*; Dab = NCC[C@H](N)C(=O)O

How the values were obtained:
[1] = system: Pseudomonas aeruginosa ATCC 27853 (PA 27853); settings: previously determined; cited from earlier work
PA 9019 = settings: PA 9019, MDR bloodstream isolate; previously determined; cited from earlier work
Epithelial lining fluid = type: in vivo, Swiss Webster mice; settings: for Time post dose up to which component could be quantified in ELF: mouse, in vivo
[2] = Serum pharmacokinetics after intravenous administration in mice; settings: female, ND4 Swiss Webster, mouse, in vivo, 3 mg/kg

Polymyxin B [PB]
MIC [1]: 2 µg/mL | MIC (PA 9019): 4 µg/mL

CC[C@H](C)CCCCC(=O)N[C@@H](CCN)C(=O)N[C@H](C(=O)N[C@@H](CCN)C(=O)N[C@H]1CCNC(=O)[C@H]([C@@H](C)O)NC(=O)[C@H](CCN)NC(=O)[C@H](CCN)NC(=O)[C@H]([C@@H](C)CC)NC(=O)[C@@H](Cc2ccccc2)NC(=O)[C@H](CCN)NC1=O)[C@@H](C)O [ile-PB1, isoleucine-B1] (X1-[Dab]T[Dab][Dab][Dab][dF]I[Dab][Dab]T; lactam 4-C)
Time post dose up to which component could be quantified in ELF (Epithelial lining fluid): up to 2 h

CC(C)CCCCC(=O)N[C@@H](CCN)C(=O)N[C@H](C(=O)N[C@@H](CCN)C(=O)N[C@H]1CCNC(=O)[C@H]([C@@H](C)O)NC(=O)[C@H](CCN)NC(=O)[C@H](CCN)NC(=O)[C@H](CC(C)C)NC(=O)[C@@H](Cc2ccccc2)NC(=O)[C@H](CCN)NC1=O)[C@@H](C)O [PB2, polymyxin B2] ({Heptanoyl(6-Me)}-[Dab]T[Dab][Dab][Dab][dF]L[Dab][Dab]T; lactam 4-C)
Time post dose up to which component could be quantified in ELF (Epithelial lining fluid): up to 2 h

CCCCCCCC(=O)N[C@@H](CCN)C(=O)N[C@H](C(=O)N[C@@H](CCN)C(=O)N[C@H]1CCNC(=O)[C@H]([C@@H](C)O)NC(=O)[C@H](CCN)NC(=O)[C@H](CCN)NC(=O)[C@H](CC(C)C)NC(=O)[C@@H](Cc2ccccc2)NC(=O)[C@H](CCN)NC1=O)[C@@H](C)O [PB3, polymyxin B3] (Octanoyl-[Dab]T[Dab][Dab][Dab][dF]L[Dab][Dab]T; lactam 4-C)
Time post dose up to which component could be quantified in ELF (Epithelial lining fluid): up to 2 h

CC[C@H](C)CCCCC(=O)N[C@@H](CCN)C(=O)N[C@H](C(=O)N[C@@H](CCN)C(=O)N[C@H]1CCNC(=O)[C@H]([C@@H](C)O)NC(=O)[C@H](CCN)NC(=O)[C@H](CCN)NC(=O)[C@H](CC(C)C)NC(=O)[C@@H](Cc2ccccc2)NC(=O)[C@H](CCN)NC1=O)[C@@H](C)O [PB1, polymyxin B1] (X1-[Dab]T[Dab][Dab][Dab][dF]L[Dab][Dab]T; lactam 4-C)
half-life [2]: 19.2 min | AUC ratio (liposome:solution) in epithelial lining fluid (Epithelial lining fluid; ELF AUC0–6h, i.v. ca. 3 mg/kg, mice): 6.21
